This is an account of results in PMC4754667 (Clinical genitourinary cancer, 2013).

One series in a line: clinical. The conditions noted are these: human, in vivo, Mean.
In the next series the test system is Ang2. The conditions noted are these: patients with metastatic RCC under sunitinib treatment; cited from earlier work.

Structures are written as SMILES.

For the compound `CCN(CC)CCNC(=O)c1c(C)[nH]c(/C=C2\C(=O)Nc3ccc(F)cc32)c1C` [Sunitinib, sunitinib], the AUC(0-t) – broadly, exposure summed from dosing to a finite time, without extrapolation to infinity – in “clinical” (3 mg/kg, Sunitinib AUC (AUC0-24)) is 1300 ng·h/mL; in “clinical” (10 mg/kg, Sunitinib AUC (AUC0-24)), 1250 ng·h/mL. The maximum concentration (Cmax) (usually the maximum level reached in the sampled fluid or tissue) in the series “clinical” (3 mg/kg, Sunitinib Cmax) is 64.2 ng/mL; in “clinical” (10 mg/kg, Sunitinib Cmax) it was 61.8 ng/mL. For the same compound, the Tmax (usually the time from dosing to the highest level) is 8 h in the series “clinical” (3 mg/kg, Sunitinib Tmax) and 8.1 h in the series “clinical” (10 mg/kg, Sunitinib Tmax). Besides, in the series with Ang2, the “decrease in plasma Ang2 levels” value is on record as 80%.
On to `CNC(=O)c1cc(Oc2ccc(NC(=O)Nc3ccc(Cl)c(C(F)(F)F)c3)cc2)ccn1` [Sorafenib, sorafenib], for which the AUC(0-t) in “clinical” (3 mg/kg, Sorafenib AUC (AUC0-12)) came to 2580 ng·h/mL; in “clinical” (10 mg/kg, Sorafenib AUC (AUC0-12)), 3130 ng·h/mL. Further, the Cmax in the series “clinical” (3 mg/kg, Sorafenib Cmax) is 466 ng/mL; in the series “clinical” (10 mg/kg, Sorafenib Cmax), 559 ng/mL. For the same compound, the Tmax in the series “clinical” (3 mg/kg, Sorafenib Tmax) was 1.1 h; in “clinical” (10 mg/kg, Sorafenib Tmax) it was 1 h.
